{"source": "patent US20050153930A1", "about": "“Inhibition of a novel calcium injury current that forms in nuerons during injury prevents neuronal cell death” (Robert J. DeLorenzo, priority 2000, published 2005)", "format_in_all_cases": "cell-based, rat", "key": {"[1]": {"test_system": "hippocampal neurons in culture", "test": "Neuronal cell death / survival after excitotoxic glutamate, aging or chronic glutamate injury", "conditions": "for neuronal cell death produced by excitotoxic glutamate exposure: acute excitotoxic injury, treatment after injury"}, "[2]": {"test_system": "Injury Induced Calcium Channel (IICC)", "test": "Voltage clamp current/voltage relationship of the injury induced calcium current"}, "[3]": {"test_system": "hippocampal neurons in culture", "test": "Extended neuronal depolarization (END), membrane potential recording after excitotoxic glutamate exposure"}, "[4]": {"test_system": "hippocampal neurons in culture", "test": "Intracellular calcium measurement (Indo-1 / Fura-FF) after excitotoxic glutamate exposure", "conditions": "for prolonged elevation of intra cellular calcium / entry of extra cellular calcium following injury: after excitotoxic glutamate exposure"}, "[5]": {"conditions": "administered alone or in combination (without gadolinium) after the 10 minute glutamate exposure"}, "[6]": {"conditions": "chronic exposure during numerous minor chronic glutamate injuries"}, "[7]": {"conditions": "neurons in END after excitotoxic glutamate, voltage steps -90 to +60 mV"}, "[8]": {"conditions": "applied in wash after 10 min 100 uM glutamate + 10 uM glycine"}, "[9]": {"conditions": "chronically administered during aging of neurons"}}, "note": "Entries after “also recorded” stand apart in the source; their conditions may differ. Structures can show the parent of a compound that is named as a salt. Where two headings read alike, the source gives them in different places.", "data": [{"compound": "CC1=C(/C=C/C(C)=C/C=C/C(C)=C/C=C/C=C(C)/C=C/C=C(C)/C=C/C2=C(C)CCCC2(C)C)C(C)(C)CCC1", "note": "[beta-carotene]", "values": [{"measurement": "neuronal survival", "setting": "[1]; [5]", "result": "had no significant effect on neuronal survival"}]}, {"compound": "[Cd]", "note": "[cadmium, reference compound]", "values": [{"measurement": "effect on IICC current (calcium injury current)", "setting": "[2]", "result": "None of these calcium channel blockers had any effect"}]}, {"compound": "dilauryl ascorbate", "values": [{"measurement": "neuronal survival", "setting": "[1]", "result": "had no significant effect on neuronal survival"}]}, {"compound": "CCCCCCCCCCCCCCCC(=O)OC[C@H](O)[C@H]1OC(=O)C(O)=C1O", "note": "[ascorbyl palmitate]", "values": [{"measurement": "neuronal survival", "setting": "[1]; [5]", "result": "had no significant effect on neuronal survival"}]}, {"compound": "C[C@@H]1C[C@H]2[C@@H]3CCC4=CC(=O)C=C[C@]4(C)C3=CC[C@]2(C)[C@H]1C(=O)CN1CCN(c2cc(N3CCCC3)nc(N3CCCC3)n2)CC1", "note": "[tirilazad mesylate]", "values": [{"measurement": "neuronal survival", "setting": "[1]; [5]", "result": "had no significant effect on neuronal survival"}]}, {"compound": "[Cl][Gd]([Cl])[Cl]", "note": "[gadolinium, gadolinium chloride]", "values": [{"measurement": "formation of IICCs", "setting": "[2]; [6]", "result": "blocked the formation of IICCs"}, {"measurement": "development of IICCs", "setting": "[2]; given chronically to aging neurons", "result": "blocked the development of IICCs"}, {"measurement": "effect on IICC current (calcium injury current)", "setting": "[2]; [7]", "result": "inhibited the IICC current"}, {"measurement": "effect on IICC current (calcium injury current)", "setting": "[2]; neurons in END after excitotoxic glutamate, voltage steps -90 to +60 mV, listed as Gadolinium", "result": "effectively inhibited the IICC current"}, {"measurement": "effect on IICC current (calcium injury current)", "setting": "[2]; neurons in END after excitotoxic glutamate, voltage steps -90 to +60 mV, listed as gadolinium chloride", "result": "returns the neuron from END to baseline (control) conditions"}, {"measurement": "neuronal cell death produced by excitotoxic glutamate exposure", "setting": "[1]", "result": "effective in reversing"}, {"measurement": "neuronal cell death produced by excitotoxic glutamate exposure", "setting": "[1]; listed as Gadolinium", "result": "prevention of delayed neuronal cell death"}, {"measurement": "life span of neurons / cell death associated with aging", "setting": "[1]; administered chronically to neurons as they aged", "result": "effective in significantly increasing the life span of the neurons; also recorded: prolonged the life of the neurons"}, {"measurement": "neuronal cell death from chronic injury", "setting": "[1]; [6]", "result": "prevented the gradual production of neuronal cell death"}, {"measurement": "neuronal cell death", "setting": "[1]; excitotoxic injury in the presence of gadolinium", "result": "did not die"}, {"measurement": "reversal of END", "setting": "[3]; [8]", "result": "blocked by gadolinium; also recorded: effective in reversing END"}, {"measurement": "reversal of END", "setting": "[3]; applied in wash after 10 min 100 uM glutamate + 10 uM glycine, listed as Gadolinium", "result": "as effective as zero calcium in reversing END; also recorded: able to reverse END as well as zero calcium"}, {"measurement": "development of END", "setting": "[3]; chronic administration, chronic injury model (multiple minor glutamate exposures)", "result": "blocked calcium entry and accumulation and the development of END"}, {"measurement": "development of END", "setting": "[3]; [9]", "result": "blocked calcium entry and the development of END"}, {"measurement": "time for END to return to baseline levels", "setting": "[3]; gadolinium in wash after excitotoxic glutamate, controls manifested END for greater than one hour", "result": "30 to 40", "unit": "min"}, {"measurement": "prolonged elevation of intra cellular calcium / entry of extra cellular calcium following injury", "setting": "[4]", "result": "able to block the extra cellular calcium entering from the bathing solution; also recorded: blocked by gadolinium"}, {"measurement": "prolonged elevation of intra cellular calcium / entry of extra cellular calcium following injury", "setting": "[4]; listed as Gadolinium", "result": "effective in reversing the prolonged elevation of intra cellular calcium"}, {"measurement": "calcium entry and accumulation", "setting": "[4]; chronic administration, chronic injury model", "result": "blocked calcium entry and accumulation"}, {"measurement": "calcium entry", "setting": "[4]; [9]", "result": "blocked calcium entry"}, {"measurement": "time for intra cellular calcium to return to baseline levels", "setting": "[4]; gadolinium in wash after excitotoxic glutamate, controls sustained at approximately 1-2 uM (indo-1)", "result": "30 to 40", "unit": "min"}]}, {"compound": "O=C(O)CCCCC1CCSS1", "note": "(stereo not drawn) [alpha-lipoate, 1,2-dithiolane-3-pentanoic acid]", "values": [{"measurement": "neuronal survival", "setting": "[1]; [5]", "result": "had no significant effect on neuronal survival"}]}, {"compound": "heparin", "values": [{"measurement": "neuronal survival", "setting": "[1]; [5]", "result": "had no significant effect on neuronal survival"}]}, {"compound": "NS(=O)(=O)c1cccc2c1c([N+](=O)[O-])cc1nc(O)c(O)nc12", "note": "[NBQX, reference compound]", "values": [{"measurement": "effect on IICC current (calcium injury current)", "setting": "[2]; [7]", "result": "None of the glutamate receptor antagonists had any effect"}]}, {"compound": "Cc1c(C)c2c(c(C)c1O)CC[C@@](C)(CCC[C@H](C)CCC[C@H](C)CCCC(C)C)O2", "note": "[vitamin E, alpha-tocopherol]", "values": [{"measurement": "neuronal survival", "setting": "[1]; [5]", "result": "had no significant effect on neuronal survival"}]}, {"compound": "CCN(CC)Cc1nccn1-c1ccc([N+](=O)[O-])cc1C(=O)c1ccccc1Cl", "note": "[nizofenone]", "values": [{"measurement": "neuronal survival", "setting": "[1]; [5]", "result": "had no significant effect on neuronal survival"}]}, {"compound": "C[C@H]1C[C@@H]2[C@H]([C@@H](O)C[C@@]3(C)[C@H]2CC[C@]3(O)C(=O)CO)[C@@]2(C)C=CC(=O)C=C12", "note": "[methlyprednisolone]", "values": [{"measurement": "neuronal survival", "setting": "[1]; [5]", "result": "had no significant effect on neuronal survival"}]}, {"compound": "CC(C)COCC(CN(Cc1ccccc1)c1ccccc1)N1CCCC1", "note": "(stereo not shown) [Bepridil, reference compound]", "values": [{"measurement": "effect on IICC current (calcium injury current)", "setting": "[2]", "result": "had no effect on blocking the observed calcium injury current"}, {"measurement": "reversal of END", "setting": "[3]; [8]", "result": "did not block END; also recorded: had no effect in reversing END"}]}, {"compound": "[Cl-].[Cl-].[Zn+2]", "note": "[zinc chloride, reference compound]", "values": [{"measurement": "reversal of END", "setting": "[3]; 5 uM, after excitotoxic glutamate exposure", "result": "did not prevent END"}, {"measurement": "reversal of END", "setting": "[3]; 5 uM, after excitotoxic glutamate exposure, listed as zinc", "result": "had no effect in reversing END"}]}, {"compound": "O=c1ccc2ccccc2o1", "note": "[coumarin]", "values": [{"measurement": "neuronal survival", "setting": "[1]; [5]", "result": "had no significant effect on neuronal survival"}]}, {"compound": "N[C@@H](CCCP(=O)(O)O)C(=O)O", "note": "[APV, reference compound]", "values": [{"measurement": "effect on IICC current (calcium injury current)", "setting": "[2]; [7]", "result": "None of the glutamate receptor antagonists had any effect"}]}, {"compound": "O=C1O[C@H]([C@@H](O)CO)C(O)=C1O", "note": "[vitamin C, ascorbic acid]", "values": [{"measurement": "neuronal survival", "setting": "[1]", "result": "had no significant effect on neuronal survival"}]}, {"compound": "N#Cc1cc2[nH]c(=O)c(=O)[nH]c2cc1[N+](=O)[O-]", "note": "[CNQX, reference compound]", "values": [{"measurement": "effect on IICC current (calcium injury current)", "setting": "[2]; [7]", "result": "None of the glutamate receptor antagonists had any effect"}]}, {"compound": "COc1ccc(CCCOC(Cn2ccnc2)c2ccc(OC)cc2)cc1", "note": "(stereo not shown) [SKF-96365, reference compound]", "values": [{"measurement": "reversal of END", "setting": "[3]; [8]", "result": "had no effect on reversing END"}]}]}
